Measurements: patent US20170261507A1, “Methods for Predicting and Monitoring Cancer Patients' Response to Teatment by Measuring Myeloid Derived Suppressor Cells (MDSCs)” (YISSUM RESEARCH DEVELOPMENT COMPANY OF THE HEBREW …, priority 2014, published 2017)

Assays:
[1] = system: stage-4 melanoma patients; experiment: Ipilimumab treatment of stage-4 metastatic melanoma patients: response and survival; type: in vivo, human
Procedure: The percentage of MDSC with the profile CD11b^+CD33^+HLA-DR^− was measured in peripheral blood samples (3-5 ml) of healthy donors (n=40) and stage-4 melanoma patients (n=56) prior to ipilimumab (anti-CTLA4) treatment. All the melanoma patients were diagnosed with metastatic melanoma. The samples were taken according to the Helsinki approval. Clinical parameters were acquired from the medical records of patients.
In order to evaluate whether MDSC levels in the blood can predict responsiveness to treatment with the anti CTLA4 antibody ipilimumab, the levels of MDSC in the peripheral blood of melanoma patients were measured, as described above, prior to treatment with ipilimumab. […] As shown in FIG. 3A there was a strike correlation between high levels of MDSC in the peripheral blood of patients and subsequent failure to respond to treatment with ipilimumab. Clearly, this parameter could distinguish between the two groups of melanoma patients. In addition, the level of lactate dehydrogenase (LDH) was evaluated before the treatment with ipilimumab began. There was no significant difference between the groups of patients with respect to this parameter (FIG. 3B).
The following experiment was performed in order to evaluate whether MDSC levels in the blood can predict metastatic severity and patient survival. The levels of MDSC, as well as the levels of LDH, were measured in the peripheral blood of melanoma patients, as described above, prior to treatment with ipilimumab. […] In addition, as shown in FIG. 4B higher MDSCs levels are found in the group of patients with high LDH levels (LDH low<480 U/I; LDH high>480 U/I). In addition, the melanoma patients were divided into two groups according to their MDSCs levels measured prior to the ipilimumab treatments; one group was termed Low MDSCs (<55.5%, n=39) and the other group was termed High MDSCs (>55.5%, n=14). The percent survival and their survival in months were evaluated. […] The survival in months of the Low MDSCs group being 11.56±1.2 (n=39) and of the High MDSCs group being 6.857±1.4 (n=14). Apparently, high MDSC levels are predictors of a more severe metastatic profile and of a shorter survival time of the cancer patient.
In this experiment the survival of melanoma patients was correlated with the severity of their metastatic stage and with their LDH levels. The patients were divided into two groups according to their metastatic level prior to ipilimumab treatments; the first group included patients with the relatively lower metastatic severity, namely M1A/B/C, and the second group included patients with the higher, M2, metastatic severity. As shown in FIGS. 5A and 5B the survival of patients in the M1A/B/C group was higher than the survival of the patients in the M2 group, being 12.4±1.2 months (n=35) in the M1A/B/C group and 6.1±1.1 months (n=18) in the M2 group. The patients were divided into two groups according their LDH levels prior to ipilimumab treatments; the first group included patients with the relatively lower LDH level, namely LDH<480 U/I; and the second group included patients with the higher LDH level, namely LDH>480 U/I. As shown in FIGS. 5C and 5D the survival of patients in the LDH low group was higher than the survival of the patients in the LDH high group, being 13.5±1.4 months (n=28) in the LDH low group and 6.6±0.9 months (n=20) in the LDH high group. Apparently, high LDH levels and a severe metastatic stage are predictors of a shorter survival time of the cancer patient.
These patients had high LDH levels on the day the first ipilimumab treatment was given and their staging level was M1C.

[2] = system: CRC-mice; experiment: Vitality and survival of CRC-mice; type: in vivo, mouse; conditions: daily recorded, compared to 5FU, CPT11 treated MDSC depleted or untreated CRC-mice
Procedure: Therefore, MDSC depletion could reduce the harmful effect of CPT11 on the immune status, and thereby enhance the anti-tumor effect. CRC-mice were subjected to either 5FU, CPT11 or a 5FU/CPT11 combination starting at week eight, or were untreated. At the same day of the second DSS administration, CPT11-treated CRC-mice were randomly separated into two groups; one group continued with CPT11 treatment while the second group was treated with anti-Gr1 mAb for MDSC depletion in addition to CPT11 treatment. Three weeks after the second DSS treatment mice were sacrificed and PBLs (FIG. 10B) and colons (FIG. 10C) were analyzed. […] This pattern indicates a beneficial effect of 5FU that attenuates CRC progression with a harmful contribution of CPT11, supporting immunosuppression and tumor progression via its effects on MDSCs.

[3] = system: CRC-mice
[4] = system: MDSCs; experiment: BCG chronic inflammation mouse model: ROS and NO^− production by MDSCs; type: in vivo; conditions: splenic MDSCs, compared to inflamed-untreated mice
Procedure: (§1) Mice were injected intraperitoneally with 10 mg/kg body weight of Azoxymethan (AOM, purchased from Sigma-Aldrich (St. Louis, Mo., USA)) dissolved in physiological saline twice in two weeks intervals. Two weeks later, 2% dextran sulfate sodium (DSS, purchased from MP biochemicals Inc. (Santa Ana, Calif., USA)) was given in the drinking water over 7 days, followed by 14 days of regular water (15). This cycle was repeated twice. Animals were sacrificed and analyzed three weeks after the last treatment. To induce a pathology-free chronic inflammation, a previously described protocol subjecting mice to heat-killed Mycobacterium […] (BCG) treatment (16) was used.
(§2) Next, the immunoregulatory effects of 5FU and CPT11 were examined in a mouse model for chronic inflammation and associated immunosuppression (10), as described in the materials and method section above and in FIG. 13A. This experiment was performed in order to investigate whether the differential effects of the drugs are related to the presence of the tumor. Briefly, the mouse model for chronic inflammation was established by three repeated injections of heat-killed BCG bacteria. A day after the second BCG injection, mice were treated twice a week with 5FU, CPT11 or a 5FU/CPT11 combination. […] No changes in CD4^+Foxp3^+ Tregs percentage were detected (FIG. 13H), confirming that these chemotherapies specifically affect MDSCs.

[5] = system: MDSCs; experiment: Myeloid cell differentiation in vivo in CRC-mice
[6] = system: MDSCs; experiment: NO^− and ROS production by MDSCs of treated CRC-mice (flow cytometry); type: in vivo, mouse
[7] = system: MDSCs; experiment: BCG chronic inflammation mouse model: MDSC levels; type: in vivo; conditions: PBLs and spleen, compared to inflamed-untreated mice
Procedure: as §1, §2

[8] = system: Gr1^+CD11b^+ MDSCs; experiment: MDSC accumulation in colon, spleen and PBLs of CRC-mice; type: in vivo, mouse
[9] = system: cleaved caspase-3; experiment: Cleaved caspase-3 in splenic MDSCs of treated CRC-mice; type: in vivo, mouse
[10] = system: CRC-derived MDSC; experiment: Ex vivo GM-CSF mediated myeloid-cell differentiation; type: cell-based, mouse; conditions: 10 ng/ml GM-CSF, 72 h, vs GM-CSF only
[11] = system: T-cells; experiment: CFSE T-cell proliferation assay, splenocytes of CRC-mice; type: in vivo, mouse; conditions: CFSE-labeled Thy1.2^+ T-cells, TCR-CD28 mediated activation, vs untreated CRC-mice
Procedure: (§3) Splenocytes or purified T-cells isolated by a magnetic column separation system (Miltenyi Biotec) were labeled with 5 M CFSE (Invitrogen) and subjected to TCR-mediated activation as previously described (16). Next, the effect of the given chemotherapies on the immune status was evaluated. This was performed by testing the function of the whole T-cell population (FIG. 9J) as well as the CD8^+ T-cells (FIG. 9K) in all experimental groups along with measurements of the expression levels of CD247 in CD3^+ (FIG. 9L) and in CD8^+ T-cells (FIG. 9M). T-cell proliferative response was assessed by monitoring cell divisions of gated CFSE-labeled Thy1.2^+ (CD90^+) T-cells upon TCR-CD28 mediated activation.

[12] = system: CD247; experiment: CD247 expression in T-cells of CRC-mice; type: in vivo, mouse; conditions: splenocytes of CRC-mice
Procedure: as §3, with “Next,” for “Splenocytes or purified T-cells isolated by a magnetic column separation system (Miltenyi Biotec) were labeled with 5 M CFSE (Invitrogen) and subjected to TCR-mediated activation as previously described (16). Next,”

[13] = system: TNFα, S100A9; experiment: TNFα and S100A9 mRNA in ex vivo cultured MDSCs (Real Time PCR); type: cell-based, mouse; conditions: 3 days
[14] = system: MDSCs isolated from spleens of CRC mice; experiment: Cleaved caspase-3 in ex vivo cultured MDSCs, DCs and macrophages; type: cell-based, mouse; conditions: ex vivo, various doses, 3 days, dose-dependent
[15] = system: MDSCs isolated from spleens of CRC-mice; experiment: NO^− and ROS production in ex vivo cultured MDSCs; type: cell-based, mouse; conditions: 2.5 μmol/L, 24 h
[16] = system: S100A8/9; conditions: MDSCs from spleen of CRC-mice
[17] = system: β-catenin; experiment: β-catenin immunohistochemistry of colons of CRC-mice; type: in vivo, mouse

ipilimumab: humanized anti-CTLA4 monoclonal antibody
survival in months ([1]; LDH high group (>480 U/I, n=20) prior to ipilimumab): 6.6±0.9 months
survival in months ([1]; LDH low group (<480 U/I, n=28) prior to ipilimumab): 13.5±1.4 months
survival in months ([1]; M1A/B/C group (n=35), metastatic level prior to ipilimumab): 12.4±1.2 months
survival in months ([1]; M2 group (n=18), metastatic level prior to ipilimumab): 6.1±1.1 months
survival in months ([1]; melanoma patients, High MDSCs group (>55.5%, n=14) prior to ipilimumab): 6.857±1.4 months
survival in months ([1]; melanoma patients, Low MDSCs group (<55.5%, n=39) prior to ipilimumab): 11.56±1.2 months
patients that responded to the ipilimumab treatment ([1]; out of the 56 patients involved in this study): 14 patients

CCc1c2c(nc3ccc(OC(=O)N4CCC(N5CCCCC5)CC4)cc13)-c1cc3c(c(=O)n1C2)COC(=O)[C@]3(O)CC [CPT11, Irinotecan]
vitality and survival of the mice [2]: increased death rates
spleen size (inflammatory response) ([3]; compared to 5FU treated CRC- or control-mice): enlarged spleen size
tumor load within the colon (hematoxylin-eosin histopathology) ([3]; monotherapy for three weeks, vs untreated CRC mice): no apparent differences in tumor loads
histopathological analysis of colon sections (hematoxylin-eosin) ([3]; three weeks after second DSS treatment): differentiated adenocarcinoma
histological analyses of colons ([3]; treated CRC-mice): not only a loss of entire crypts and surface epithelial layer, but also a massive leukocyte infiltration into the mucosa
ROS and NO^− production [4]: induced opposite effects
myeloid cell differentiation in vivo (DCs and macrophages) [5]: blocked myeloid cell differentiation
NO^− production ([6]; lamina propria and epithelial MDSCs, vs untreated CRC mice): NO^− levels remained elevated
NO^− and ROS production ([6]; splenic MDSCs, compared to untreated CRC-mice): elevated levels
MDSC levels [7]: induced opposite effects
MDSCs within the colon (immunohistochemical probing) ([8]; anti-Gr-1 staining): elevated levels of the cells
MDSC numbers / infiltration in colon ([8]; lamina propria and epithelium, flow cytometry, vs untreated CRC-mice): increased MDSC numbers
cleaved caspase-3 expression in spleen MDSCs [9]: decreased cleaved caspase-3 levels
GM-CSF mediated CRC-derived MDSC differentiation [10]: prevented cell differentiation
T-cell proliferative ability [11]: decreased T-cell proliferative ability
CD247 expression levels in T-cells [12]: low CD247 levels
mRNA levels of TNFα and S100A9 [13]: increased mRNA levels
cleaved caspase-3 in purified cultured MDSCs [14]: not CPT11 leads to cleaved caspase-3 up-regulation
NO^− and ROS production in monocytic and granulocyte MDSC populations [15]: increased NO^− (FIG. 9H) and ROS (FIG. 9I) production
NO^− or ROS production in purified cultured MDSCs [15]: resulted in their elevation
S100A8/9 mRNA and protein levels [16]: increased S100A8/9 levels
β-catenin localization in CRC colons [17]: massive β-catenin accumulation in the nuclei of tumor cells
